In ChEMBL document CHEMBL5385879, “Various strategies for developing APOBEC3G protectors to circumvent human immunodeficiency virus type 1” (Eur J Med Chem, 2023):
The source made the active and inactive calls. The calls are words filed in the database; no cut-off is given here.

Columns and labels:
HEK293T = assay: Inhibition of HIV1 Vif expressed in HEK293T cells to cul5 (unknown origin) protein-protein interaction; format: cell-based
[1] = Cytotoxicity against HEK293T cells; format: toxicity, cell-based, HEK-293T; details: human
[2] = test system: Human immunodeficiency virus 2; assay: Antiviral activity against HIV2 infected in C8166 cells assessed as reduction in viral replication measured after 3 days by ELISA; format: functional, organism-based; details: Human immunodeficiency virus 2, C8166, 72 h
[3] = test system: Human immunodeficiency virus 2; assay: Antiviral activity against HIV2 infected in PBMCs assessed as reduction in viral replication measured after 7 days by ELISA; format: functional, organism-based; details: Human immunodeficiency virus 2, PBMC, 168 h
[4] = test system: Human immunodeficiency virus 1; assay: Antiviral activity against HIV1 infected in C8166 cells assessed as reduction in viral replication measured after 3 days by ELISA; format: functional, organism-based; details: Human immunodeficiency virus 1, C8166, 72 h
[5] = test system: Human immunodeficiency virus 1; assay: Antiviral activity against HIV1 infected in PBMCs assessed as reduction in viral replication measured after 7 days by ELISA; format: functional, organism-based; details: Human immunodeficiency virus 1, PBMC, 168 h
[6] = Inhibition of HIV1 Vif to human A3G protein-protein interaction
[7] = test system: Human immunodeficiency virus 1; assay: Antiviral activity against HIV1 infected in H9 cells assessed as reduction in viral replication measured after 4 days post infection; format: functional, organism-based; details: Human immunodeficiency virus 1, H9, 96 h
[8] = biological target: Virion infectivity factor (Human immunodeficiency virus type 1 group M subtype B (isolate NY5)(HIV-1), UniProt P12504); assay: Inhibition of HIV1 Vif; design: species or system Human immunodeficiency virus 1
Virion infectivity factor, sequence (P12504 1-150 limits assumed): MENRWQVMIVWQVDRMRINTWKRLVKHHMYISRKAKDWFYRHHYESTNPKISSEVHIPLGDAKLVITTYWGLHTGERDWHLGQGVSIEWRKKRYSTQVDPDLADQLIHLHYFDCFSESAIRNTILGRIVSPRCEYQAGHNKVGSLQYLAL
Virion infectivity factor, sequence (P12504 151-192 limits assumed): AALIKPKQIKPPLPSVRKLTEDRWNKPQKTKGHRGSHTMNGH

[9] = test system: Human immunodeficiency virus 1; assay: Antiviral activity against HIV1 infected in HEK293T cells cotransfected with pNL4-3 plus A3G vector assessed as reduction in viral replication measured after 48 hrs post transfection by MAGI assay; format: functional, organism-based; details: Human immunodeficiency virus 1, HEK-293T
[10] = Cytotoxicity against human PBMCs; format: toxicity, cell-based, PBMC; details: read-out: TC50 (the source's name)
[11] = Inhibition of HIV1 GST-tagged Vif (1 to 94 residues) to biotinylated-A3G (110 to 148 residues) (unknown origin) protein-protein interaction by TR-FRET assay
[12] = test system: Human immunodeficiency virus 1; assay: Antiviral activity against HIV1 Bal infected in PBMCs assessed as reduction in viral replication measured after 7 days post infection; format: functional, organism-based; details: Human immunodeficiency virus 1, Bal, PBMC, 168 h
[13] = test system: Human immunodeficiency virus 1; assay: Antiviral activity against HIV-1 Bal infected in PBMCs; format: functional, organism-based; details: Human immunodeficiency virus 1, Bal, PBMC
[14] = test system: Human immunodeficiency virus 1; assay: Antiviral activity against HIV1 infected in CEM cells assessed as reduction in viral replication measured on day 7 postinfection by ELISA; format: functional, organism-based; details: Human immunodeficiency virus 1, CCRF-CEM, 168 h
[15] = test system: Human immunodeficiency virus 1; assay: Antiviral activity against HIV-1 NL4-3 infected in HEK293T cells cotransfected with Vif and hA3G-HA assessed as fold increase in A3G-HA level at 10 uM measured after 36 hrs by Western blotting analysis; format: functional
[16] = test system: Human immunodeficiency virus 1; assay: Antiviral activity against HIV-1 NL4-3 infected in HEK293T cells cotransfected with VSVG and hA3G-HA assessed as reduction in viral replication preincubated for 36 hrs followed by SubT1 cells infection for 48 hrs by luciferase based assay; format: functional, organism-based; details: Human immunodeficiency virus 1, NL4-3, HEK-293T
Hepatitis B virus [17] = assay: Antiviral activity against HBV infected in ETV/3TC-resistant HepG2.A64 cells assessed as reduction in viral replication; format: functional, organism-based
Hepatitis B virus [18] = assay: Antiviral activity against wild type HBV infected in HepG2.2.15 cells assessed as reduction in viral replication; format: functional, organism-based

With `c1ccc(CN(CCN(Cc2ccccn2)Cc2ccccn2)Cc2ccccn2)nc1` the inhibition (HEK293T) was “Active”.

Work on `CCCCn1c(SCc2c(C)noc2C)nc2cc(S(N)(=O)=O)ccc21` yielded an IC50 [1] of 30000 nM.

`CCCCCCCCCCCCCCCCCCCCCCC(=O)O[C@@H]1[C@@H](C)[C@@]2(O)[C@@H](C=C(COC(C)=O)C[C@]3(O)C(=O)C(C)=C[C@@H]23)[C@@H]2C(C)(C)[C@]12O` showed an IC50 [2] of 100 nM, an IC50 [3] of 100 nM and an IC50 [4] of 100 nM. The IC50 [5] was 100 nM.

With `COc1ccc(C(=O)Oc2cc(OC)c(OC)c(OC)c2)cc1NC(=O)C(C)Br` (stereo not drawn) the IC50 [6] was 17 nM.

With `N#C/C(=C\c1ccc(Br)nc1)c1nc2ccccc2[nH]1` the IC50 [7] was 1010 nM.

Compound `COc1ccccc1NC(=O)c1ccccc1Sc1ccc([N+](=O)[O-])cc1` has an IC50 [8] of 6000 nM.

Work on `CCOC(=O)c1cc(C(=O)c2ccc3ccccc3c2)n2ccc(C(=O)c3ccccc3)cc12` yielded an IC50 [9] of 25000 nM.

Compound `COc1ccc(C(=O)Nc2cc(OC)c(OC)c(OC)c2)cc1NC(=O)C(C)Br` (stereo not drawn) has an IC50 [6] of 17 nM.

Compound `C/C(=C/C(=O)c1cccnc1)Nc1ccc(O)cc1` has a CC50 [10] greater than 100000 nM, an IC50 [11] of 2180 nM and an IC50 [12] of 8400 nM. For the same compound, the IC50 [13] was 4200 nM.

Work on `CC(C)(C)OC(=O)NCCCC[C@@H](NC(=O)OCc1ccccc1)C(=O)Oc1ccc([N+](=O)[O-])cc1` yielded an IC50 [14] of 8160 nM.

Work on `COc1cc(-c2ccc(Nc3ccccc3C(=O)O)c(OC)c2)ccc1Nc1ccccc1C(=O)O` yielded a CC50 [10] greater than 100000 nM and an IC50 [12] of 1370 nM.

For `Cc1noc(C)c1CSc1nc2ccccc2n1-c1ccccc1`, the IC50 [1] was 30000 nM.

With `Fc1ccc(OCC(Cn2ccnc2)c2ccc(Cl)cc2Cl)cc1` (stereo not drawn) the “fold change (FC)” value [15] was 1.7 and the IC50 [16] was 8630 nM.

`CNc1cc(C(=O)Nc2ccc(Cl)cc2)ccc1OC` gave an IC50 (Hepatitis B virus [17]) of 3300 nM and an IC50 (Hepatitis B virus [18]) of 1990 nM.
